Experimental data as given in patent publication US6541463B1, “Inhibitors of type 5 and type 3 17β-hydroxysteroid dehydrogenase and methods for their use” (Endorecherche, Inc., priority 1998, dated 2003).

Columns and labels:
[1] = target: T1, human type 2 17β-hydroxysteroid dehydrogenase (Homo sapiens, UniProt P37059); assay: Enzymatic assay for type 2 17β-HSD; assay type: biochemical; details: for Inhibition Type 2 17β-HSD Activity [% Inh. at 3 · 10^−8M] / IC50 / inhibition: Table 4′; for IC50: read-out: Inhibition Type 2 17β-HSD Activity IC50; for Inhibition Type 2 17β-HSD Activity [% Inh. at 3 · 10^−8M] / inhibition: 3 · 10^−8M; for inhibition: read-out: Inhibition Type 2 17β-HSD Activity [% Inh. at 3 · 10^−8M]
T1 construct: expressed in transfected cells; host or cells: 293 cells, transient transfection; microsomal fraction (100 000×g pellet)
T1 sequence (P37059 1-387): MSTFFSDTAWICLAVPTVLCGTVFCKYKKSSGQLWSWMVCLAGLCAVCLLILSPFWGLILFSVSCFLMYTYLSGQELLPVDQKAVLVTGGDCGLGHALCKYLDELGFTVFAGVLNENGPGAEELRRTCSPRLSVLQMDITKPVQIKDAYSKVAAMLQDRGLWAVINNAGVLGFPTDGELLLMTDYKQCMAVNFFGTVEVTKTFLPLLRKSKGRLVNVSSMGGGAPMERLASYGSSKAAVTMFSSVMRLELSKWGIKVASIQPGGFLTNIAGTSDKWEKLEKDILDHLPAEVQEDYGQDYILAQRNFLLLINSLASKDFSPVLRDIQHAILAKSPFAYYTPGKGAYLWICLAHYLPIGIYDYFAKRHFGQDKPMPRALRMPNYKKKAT
Description: The manner in which IC50 was determined is described in “Efficacy of Preferred Inhibitors: VI. Enzymatic assay for types 1, 2, and 3 17β-HSD and types 1 and 3 3α-HSD”. […] numbers of IC50 are desirable. Blank means that a determination was not done. […]
Enzyme sources. 293 cells transiently transfected with expression vectors encoding types 1, 2 and 3 17β-HSD (Luu-The et al., J. Steroid Biochem. Molec. Biol., 55: 581-587, 1995), types 1 and 2 5α-reductase (Luu-The et al., J. Invest. Dermatol., 102: 221-226, 1994) and types 1 and 3 3α-HSD (Dufort et al. Biochem. Biophys. Res. Commun. 228: 474-479, 1996), using the calcium phosphate procedure (Kingston et al., In: Current Protocols in Molecular Biology. Edited by E. M. Ausbel, R. Brent, R. E. Kingston, D. D. Moore, J. G. Seidman, J. A. Smith, K. Struhl. John Wiley & Sons, New York, pp. 9.1.1-9.1.9, 1991; Luu-The et al., J. Invest. Dermatol., 102: 221-226, 1994). For assays using cell subfractions, cells were sonicated in 50 mM sodium phosphate buffer (pH 7.4), containing 20% glycerol and 1 mM EDTA and centrifuged at 10 000×g for 30 min before centrifugation for 100 000×g for 1 h to separate the mitochondrial and microsomal fractions, respectively. The cytosol fractions (100 000×g supernatant) was used to determine type 1 activity while the microsomal fraction (pellet at 100 000×g) was used for measurement of types 2 and 3 17β-HSD activities.
Incubation. The enzymatic reaction was carried out at 37° C. in 1 ml of 50 mM sodium phosphate buffer, pH 7.4, containing 20% glycerol, 1 mM EDTA, and 2 mM cofactors (NADPH or AND^+) for 1 h in the presence of 0.1 μM ^14C-labeled substrate: estrone and 4-dione for types 1 and […] 17β-HSD, respectively, testosterone for type 2 17β-HSD as well as types 1 and 2 5α-reductases, DHT for types 1 and 3 3α-HSD activities, and the indicated concentration of inhibitor.
Extraction of metabolites, migration on TLC and quantification were as described above for the assay of type 5 17β-HSD.

[2] = test system: ZR-75-1 cells; assay: Antiestrogenic activity: inhibition of E2-induced proliferation of ZR-75-1 cells; assay type: cell-based, human; set-up: ZR-75-1 Activity, E2 / ZR-75-1 Activity E2 E^−6: unit not given here; details: for ZR-75-1 Activity E2 E^−6: with E2, E^−6
Description: The manner in which the inhibition is determined is described in “Other Tests; C-Estrogenic/Antiestrogenic Activity”. Lower numbers are desirable. ND means that a determination was not done.
(§1) Estrogenic/antiestrogenic activity of some preferred compounds has been measured using the […] human breast cancer cell line as described in more detail below.
(§2) All media and medium supplments were purchased from Sigma. Cells were subcultured weekly by treatment with a pancreatic solution containing EDTA (0.2 g/L). The cell cultures used for the experiments herein describied were between passages 89 and 94.
(§3) Cells in their logarithmic growth phase were harvested, briefly centrifuged, and resuspended in RPMI 1640. Cells were then plated in triplicate in LIMBRO 24-well plastic culture plates (2 cm^2/well). Since plating density influences the effect of hormones on ZR-75-1 cell growth, cells were plated at a density of 1×10^4 cells/well. […] Control cultures received the ethanol vehicle only. Cells were then allowed to grow at 37° C. for 10 days with medium changes (of identical composition) every 2 days.
(§4) After E2 and/or antiestrogen treatment, cells were harvested by addition of 0.5 ml of a pancreatin solution (Sigma) for 5-10 min at 37° C. before addition of 0.5 mnl of RPMI 1640 containing 5% dextran coated […] bovine serum in order to block enzymatic action. Cell number (0.10 ml aliquot) was determined by measurement of DNA content as previously described (Simard et al., Endocrinology 126: 3223-3231,1990).

[3] = test system: ZR-75-1 cells; assay: Estrogenic activity: stimulation of proliferation of ZR-75-1 cells; assay type: cell-based, human
Description: […] The manner in which the stimulation is determined is described in “Other Tests; C-Estrogenic/Antiestrogenic activity” Lower numbers are desirable. ND means that a determination was not done.
as §1, §2, §3, §4

[4] = Table 4′, E2-induced proliferation, 3E^−8

CC1(C)CC[C@@]2(CC[C@H]3[C@@H]4CCc5c(cc(Br)c(O)c5Br)[C@H]4CC[C@@]32C)OC1=O [EM-1382-CS]
Inhibition Type 2 17β-HSD Activity [% Inh. at 3 · 10^−8M] ([1]; bracketed values): [70] %

CC1(C)CC[C@@]2(CCC3C4CCc5cc(F)ccc5C4CC[C@@]32C)OC1=O (some centres unmarked) [EM-1157-CS]
IC50 [1]: > 10 µM

CN(C)C(=O)c1cc2c(cc1O)CCC1C2CCC2(C)C1CCC21CCC(C)(C)C(=O)O1 (centres unmarked) [EM-01661-B]
inhibition ([1]; bracketed values): 55%

CC1(C)CC[C@@]2(CCC3C4CCc5cc(C(=O)O)ccc5C4CC[C@@]32C)OC1=O (stereo partly drawn) [EM-1401, 3-Carboxy-1,3,5(10)-estratrien-17(R)-spiro-2′-(5′,5′-dimethyl-6′-oxo)tetrahydropyran]
inhibition ([1]; bracketed values): 76%

CC1(C)CCC2(CCC3C4CCc5cc(O)c([N+](=O)[O-])cc5C4CCC32C)OC1=O (centres unmarked) [EM-1125-CS]
ZR-75-1 Activity, E2 3E^−8 [2, 4]: 0%
ZR-75-1 Activity, Basal E^−6 ([3]; Table 4′): 34%
ZR-75-1 Activity, Basal E^−8 ([3]; Table 4′): 10%

COc1ccc(CC(=O)O[C@]2(C(C)=O)CCC3C4C=C(C)C5=CC(=O)C=C[C@]5(C)C4CC[C@@]32C)cc1 (some centres unmarked) [EM-1291]
Inhibition Type 2 17β-HSD Activity [% Inh.] ([1]; at 3.10^-8M): [67] %

COCCOc1cc2c(cc1C(F)(F)F)[C@H]1CC[C@@]3(C)[C@@H](CC[C@@]34CCC(C)(C)C(=O)O4)[C@@H]1CC2 [EM-1438, 3-(2′-Methoxyethoxy)-2-trifluoromethyl-1,3,5(10)-estratrien-17(R)-spiro-2′-(5′,5′-dimethyl-6′-oxo)tetrahydropyran]
Inhibition Type 2 17β-HSD Activity [% Inh. at 3 · 10^−8M] ([1]; bracketed values): [72] %

CC1(C)CCC2(CCC3C4CCc5c(cc(Cl)c(OS(C)(=O)=O)c5Cl)C4CCC32C)OC1=O (centres unmarked) [EM-1392-CS]
IC50 [1]: > 10 µM

CC1(C)CCC2(CCC3C4CCc5cc(OCCN6CCCCC6)ccc5C4CCC32C)OC1=O [EM-1390-CS, 3-(N-piperidyl-ethyl)-1,3,5(10)-estratrien-17(R)-spiro-2′-(5′,5′-dimethyl-6′-oxo)-tetrahydropyran]
IC50 [1]: > 10 µM

COCCOc1cc2c(cc1C(=O)N(C)C)C1CCC3(C)C(CCC34CCC(C)(C)C(=O)O4)C1CC2 (centres unmarked) [EM-1413-CS]
inhibition ([1]; bracketed values): 69%
IC50 [1]: > 10 µM

COc1cc2c(cc1C(F)(F)F)C1CCC3(C)C(CCC34CCC(C)(C)C(=O)O4)C1CC2 [EM-1409, 3-Methoxy-2-trifluoromethyl-1,3,5(10)-estratrien-17(R)-spiro-2′-(5′,5′-dimethyl-6′-oxo)tetrahydropyran]
inhibition ([1]; bracketed values): 4%

COCCOc1ccc2c(c1)C(=O)CC1C2CCC2(C)C1CCC21CCC(C)(C)C(=O)O1 (centres unmarked) [EM-1408-CS]
inhibition ([1]; bracketed values): 66%

CC(=O)O[C@]1(C(C)=O)CCC2C3C=C(C)C4=CC(=O)CC[C@]4(C)C3CC[C@@]21C (some centres unmarked) [megestrol acetate, reference compound]
ZR-75-1 Activity, E2 ([2]; E2): −81
ZR-75-1 Activity, E2 ([2]; E2, E^−8): −70

COc1ccc2c(c1)C(=O)CC1C2CC[C@@]2(C)C1CC[C@@]21CCC(C)(C)C(=O)O1 (some centres unmarked) [EM-1394]
IC50 [1]: > 10 µM

CN(C)CCOc1ccc2c(c1)CCC1C2CCC2(C)C1CCC21CCC(C)(C)C(=O)O1 (centres unmarked) [EM-1389-CS]
IC50 [1]: > 10 µM

COc1c(Br)cc2c(c1Br)CCC1C2CCC2(C)C1CCC21CCC(C)(C)C(=O)O1 (centres unmarked) [EM-1385-CS]
IC50 [1]: > 10 µM

COC(=O)c1cc2c(cc1O)CCC1C2CCC2(C)C1CCC21CCC(C)(C)C(=O)O1 (centres unmarked) [EM-01662]
inhibition ([1]; bracketed values): 70%

CC1(C)CCC2(CCC3C4CCc5cc(C(=O)OCc6ccccc6)ccc5C4CCC32C)OC1=O (centres unmarked) [EM-1398]
Inhibition Type 2 17β-HSD Activity [% Inh. at 3 · 10^−8M] ([1]; bracketed values): [64] %

CC(C)C[C@@H]1CC2C3C=CC4=CC(=O)CC[C@]4(C)C3CC[C@]2(C)C1=O (some centres unmarked) [EM-1273-CS]
ZR-75-1 Activity, E2 3E^−8 ([2]; with E2, 3E^−8): 0
ZR-75-1 Activity E2 E^−6 [2]: −30
ZR-75-1 Activity, Basal E^−6 [3]: 0
ZR-75-1 Activity, Basal E^−8 [3]: 0

CC12CCC3c4ccc(F)cc4CCC3C1CCC21CCCC(=O)O1 (centres unmarked) [EM-1170-CS]
inhibition ([1]; bracketed values): 84%

CC1(C)CCC2(CCC3C4CCc5ccccc5C4CCC32C)OC1=O (centres unmarked) [CS-224]
ZR-75-1 Activity, E2 3E^−8 [2, 4]: 13%
ZR-75-1 Activity, Basal E^−6 ([3]; Table 4′): 128%
ZR-75-1 Activity, Basal E^−8 ([3]; Table 4′): 16%

CC12C=CC(=O)C=C1C=CC1C2CCC2(C)C(=O)C3(CCCCC3)CC12 (centres unmarked) [CS-204]
ZR-75-1 Activity, E2 3E^−8 ([2]; with E2, 3E^−8): 0
ZR-75-1 Activity E2 E^−6 [2]: −25
ZR-75-1 Activity, Basal E^−6 [3]: 0
ZR-75-1 Activity, Basal E^−8 [3]: 0

COC(=O)CCCC(=O)O[C@]1(C(C)=O)CC[C@H]2[C@@H]3C=C(C)C4=CC(=O)CC[C@]4(C)[C@H]3CC[C@@]21C [EM-1007, 6-Methyl-4,6-pregnadien-17α-ol-3,20-dione 4′-Carbomethoxybutyrate]
ZR-75-1 Activity, E2 ([2]; E2): −52
ZR-75-1 Activity, E2 ([2]; E2, E^−8): −41
ZR-75-1 Activity, Basal ([3]; E^−6, in %): 0
ZR-75-1 Activity, Basal ([3]; E^−8, in %): −8

COCCOc1cc2c(cc1C(=O)O)C1CCC3(C)C(CCC34CCC(C)(C)C(=O)O4)C1CC2 [EM-1405, 2-Carboxy-3-(2″-methoxyethyloxy)-1,3,5(10)-estratrien-17(R)-spiro-2′-(5′,5′-dimethyl-6′-oxo)tetrahydropyran]
IC50 [1]: > 10 µM

C[C@]12CCC3c4cc([N+](=O)[O-])c(O)cc4CCC3C1CC[C@@]21CCCC(=O)O1 (stereo partly drawn) [EM-1124, 2-Nitro-1,3,5(10)-estraetriene-3-ol-17(R)-spiro-2′-(6′-oxo)tetrahydropyran]
ZR-75-1 Activity, E2 3E^−8 [2, 4]: 0%
ZR-75-1 Activity, Basal E^−6 ([3]; Table 4′): 12%
ZR-75-1 Activity, Basal E^−8 ([3]; Table 4′): 0%

CC1(C)CC[C@@]2(CCC3C4CCc5cc6oncc6cc5C4CC[C@@]32C)OC1=O (stereo partly drawn) [EM-1407-CS, 1,3,5(10)-estratrien-(2,3-oximino)-17(R)-spiro-2′-(5′,5′-dimethyl-6′-oxo)tetrahydropyran]
inhibition ([1]; bracketed values): 68%

CC1(C)CCC2(CCC3C4CCc5cc(O)c(C(N)=O)cc5C4CCC32C)OC1=O (centres unmarked) [EM-01660]
inhibition ([1]; bracketed values): 59%

CC1(C)CCC2(CCC3C4CCc5c(cc(Cl)c(O)c5Cl)C4CCC32C)OC1=O (centres unmarked) [EM-1391-CS]
IC50 [1]: > 10 µM

COc1cc2c(cc1C)C1CCC3(C)C(CCC34CCC(C)(C)C(=O)O4)C1CC2 (centres unmarked) [EM-1412-CS]
IC50 [1]: > 10 µM

COCCOc1cc2c(cc1F)C1CCC3(C)C(CCC34CCC(C)(C)C(=O)O4)C1CC2 (centres unmarked) [EM-1393-CS]
IC50 [1]: > 10 µM

CN1C(=O)C=C[C@]2(C)C3CC[C@@]4(C)C(CC[C@@]45CCCC(=O)O5)C3CCC12 (some centres unmarked) [EM-1122-CS]
Inhibition Type 2 17β-HSD Activity [% Inh. at 3.10^−5 M] ([1]; Table 5 column 5, bracketed values, 3.10^−5 M): [90] %

CC1(C)CCC2(CCC3C4CCc5cc(O)c(C#N)cc5C4CCC32C)OC1=O (centres unmarked) [EM-01645]
inhibition ([1]; bracketed values): 38%

CCC(=O)O[C@]1(C(C)=O)CCC2C3C=C(C)C4=CC(=O)C[C@H](C)[C@]4(C)C3CC[C@@]21C (some centres unmarked) [CS-243]
ZR-75-1 Activity, E2 ([2]; E2): −57
ZR-75-1 Activity, E2 ([2]; E2, E^−8): −60
ZR-75-1 Activity, Basal ([3]; E^−6, in %): 0
ZR-75-1 Activity, Basal ([3]; E^−8, in %): 0
